Assay results reported in US5532257A, “Benzothiazole compound, production thereof and use thereof” (Senju Pharmaceutical Co., Ltd, priority 1993, dated 1996).

Tests used:
[1] = system: Sorbitol accumulation in erythrocytes; test: Inhibitory action on sorbitol accumulation in tissues of rats with experimental (streptozotocin) diabetes: erythrocytes; assay type: in vivo, Sprague-Dawley rats; settings: % of control (control = 100%), measured 3 hours after final administration
Method: (§1) 2) Inhibitory action on sorbitol accumulation in tissues of rats with experimental diabetes
(§2) Test Drugs: Compound of the invention and EPALRESTAT (described in Japanese Patent Unexamined Publication No. 40478/1982)
(§3) Sprague-Dawley rats (male, 6 weeks old, 5-6 per group) were fasted for 18 hours and injected with streptozotocin (SIGMA, 60 mg/kg) via the tail vein under etherization to prepare rats with diabetes.
(§4) The various compounds were orally administered at 4, 8 and 24 hours after the injection of streptozotocin, at 10 mg/kg or 30 mg/kg as a 0.5% carboxymethylcellulose suspension. During the administrations, the rats were raised under free access to feed and water and the sorbitol content in the tissues (erythrocytes, sciatic nerve, lens) was determined 3 hours after the final administration, according to the enzyme method of H. Y. Bergmeyer et al. [Methods of Enzymatic Analysis, vol. 3, 1323-1330 (1974)]with the use of SDH (sorbitol dehydrogenase) and NAD (β-nicotinamide adenine dinucleotide). The results are expressed in percent (%) relative to the value of a control group administered with 0.5% carboxymethylcellulose solution (solvent) instead of the compound, which was taken as 100%.

[2] = system: Sorbitol accumulation in lens; test: Inhibitory action on sorbitol accumulation in tissues of rats with experimental (streptozotocin) diabetes: lens; assay type: in vivo, Sprague-Dawley rats; settings: % of control (control = 100%), measured 3 hours after final administration
Method: as §1, §2, §3, §4

[3] = system: Sorbitol accumulation in sciatic nerve; test: Inhibitory action on sorbitol accumulation in tissues of rats with experimental (streptozotocin) diabetes: sciatic nerve; assay type: in vivo, Sprague-Dawley rats; settings: % of control (control = 100%), measured 3 hours after final administration
Method: as §1, §2, §3, §4

ICR mice = settings: mouse, in vivo
Method: The acute toxicity (safety) of the compound of the present invention was confirmed by the following method.
Normal ICR mice (male, 7 weeks old, 5 per group) were fasted for 18 hours and the compound (300 mg/kg) of Example 37 was orally administered as a 0.5% carboxymethylcellulose suspension. To the control group, a 0.5% carboxymethylcellulos e solution alone was orally administered and observation was continued for 14 days thereafter, during which period the mice were allowed to take feed and water freely.

aldose reductase = target: T1, aldose reductase (Sus scrofa, UniProt P80276); test: Aldose reductase inhibitory action (swine lens enzyme, dl-glyceraldehyde substrate, NADPH, absorbance change at 340 nm); assay type: biochemical; settings: 3 mM dl-glyceraldehyde, 0.1 mM NADPH, pH 6.2, 25° C., 2 minutes, read-out: IC50 (concentration inhibiting the aldose reductase activity by 50%)
T1 construct: swine lenses freeze-stored at -80° C. were homogenized with distilled water; from tissue; host or cells: swine lens
Method: That is, swine lenses freeze-stored at -80° C. were homogenized with distilled water and cetrifuged at 10,000 G for 15 minutes. The supernatant was prepared into a 40% ammonium sulfate solution and subjected to cetrifugation at 10,000 G for 10 minutes.
The activity of aldose reductase was determined by the above-mentioned method of S. Hayman et al. That is, the above-mentioned enzyme solution (25 μl) and a drug solution (25 μl) dissolved in 1% DMSO at various concentrations were added to a 40 mM phosphate buffer (200 μl, pH 6.2) containing final concentrations of 0.4 M lithium sulfate, 0.1 mM NADPH (reduced type nicotinamide adenine dinucleotide phosphate) and 3 mM dl-glyceraldehyde as a substrate.
The test drug number indicates the example number to be mentioned later.

[4] = 30 mg/kg oral at 4, 8 and 24 hours after streptozotocin
[5] = 10 mg/kg oral at 4, 8 and 24 hours after streptozotocin, ** p<0.01 (Tukey)
[6] = 10 mg/kg oral at 4, 8 and 24 hours after streptozotocin, * p<0.05, ** p<0.01 (Tukey)

CC(/C=C1\SC(=S)N(CC(=O)O)C1=O)=C\c1ccccc1 [EPALRESTAT, reference compound]
Sorbitol accumulation, erythrocytes [1, 4]: 66.5% | Sorbitol accumulation, lens [2, 4]: 89.1% | Sorbitol accumulation, sciatic nerve [3, 4]: 99.9%

O=C(O)CCC(=O)N(Cc1nc2c(F)c(F)cc(F)c2s1)c1ccc(Cl)cc1 [Example 37, N-(4-chlorophenyl)-N-[(4,5,7-trifluorobenzothiazol-2-yl)methyl]succinamic acid]
Sorbitol accumulation, erythrocytes [1, 5]: 16.4% | Sorbitol accumulation, lens [2, 6]: 55.4% | death among the mice (ICR mice): no case of death | Sorbitol accumulation, sciatic nerve [3, 5]: 17.8%

O=C(O)CCC(=O)N(Cc1nc2c(Cl)c(Cl)ccc2s1)c1ccc(Cl)cc1 [Example 39, N-(4-chlorophenyl)-N-[(4,5-dichlorobenzothiazol-2-yl)methyl]succinamic acid]
IC50 (aldose reductase): 13 nM

Cc1ccc(N(Cc2nc3c(F)c(F)cc(F)c3s2)C(=O)CCC(=O)O)cc1 [Example 41, N-[(4,5,7-trifluorobenzothiazol-2-yl)methyl]-N-(4-methylphenyl)succinamic acid]
IC50 (aldose reductase): 13 nM

O=C(O)CCC(=O)N(Cc1nc2c(F)c(F)cc(F)c2s1)c1ccccc1Cl [Example 48, N-(2-chlorophenyl)-N-[(4,5,7-trifluorobenzothiazol-2-yl)methyl]succinamic acid]
Sorbitol accumulation, erythrocytes [1, 5]: 32.8% | Sorbitol accumulation, lens [2, 6]: 56.6% | Sorbitol accumulation, sciatic nerve [3, 5]: 45.7%

COc1ccc(N(Cc2nc3c(F)c(F)cc(F)c3s2)C(=O)CCC(=O)O)cc1 [Example 55, N-[(4,5,7-trifluorobenzothiazol-2-yl)methyl]-N-(4-methoxyphenyl)succinamic acid]
Sorbitol accumulation, erythrocytes [1, 5]: 2.5% | Sorbitol accumulation, lens [2, 6]: 74.4% | Sorbitol accumulation, sciatic nerve [3, 5]: 27.2%

O=C(O)CCC(=O)N(Cc1nc2c(F)c(F)cc(F)c2s1)c1ccccc1 [Example 65, N-[(4,5,7-trifluorobenzothiazol-2-yl)methyl]-N-phenylsuccinamic acid]
Sorbitol accumulation, erythrocytes [1, 5]: 6.4% | Sorbitol accumulation, lens [2, 6]: 71.8% | IC50 (aldose reductase): 15 nM | Sorbitol accumulation, sciatic nerve [3, 5]: 4.0%

CSc1ccccc1N(Cc1nc2c(F)c(F)cc(F)c2s1)C(=O)CCC(=O)O [Example 72, N-[(4,5,7-trifluorobenzothiazol-2-yl)methyl]-N-(2-methylthiophenyl)succinamic acid]
Sorbitol accumulation, erythrocytes [1, 5]: 19.2% | Sorbitol accumulation, lens [2, 6]: 50.0% | IC50 (aldose reductase): 13 nM | Sorbitol accumulation, sciatic nerve [3, 5]: 10.8%
